# Molecular target: rTgAPN2 (recombinant aminopeptidase N2, TgAPN2) (Toxoplasma gondii, UniProt A0A7J6K0L4)
# Assay: residual H-Ala-MCA hydrolysis, fluorescence
# Assay type: biochemical
# Settings: 30 min pre-incubation at 37 °C, substrate H-Ala-MCA
smiles,measurement,value
CC(C)C[C@H](NC(=O)[C@@H](O)[C@H](N)Cc1ccccc1)C(=O)O [bestatin],residual enzyme activity (%),The activity of rTgAPN2 was reduced in a dose-dependent manner in the presence of bestatin or amastatin
